Measurements taken from patent US9421211B2, “N,N′-diarylurea compounds and N,N′-diarylthiourea compounds as inhibitors of translation initiation” (President and Fellows of Harvard College, priority 2009, dated 2016).
Like-named read-outs stand apart in the source and are kept apart here.

Columns and labels:
[1] = system: A549 human lung cancer cells; test: Cell proliferation SRB assay, A549; format: cell-based; conditions: read-out: IC50 (μM), concentration that inhibits cell proliferation by 50%
Description: (§1) Reduced availability of the ternary complex causes inhibition of translation initiation and thereby of cell proliferation. […] The effects of N,N′-diarylureas on the proliferation KLN mouse squamous cell carcinoma, CRL-2351 human breast, CRL-2813 human melanoma, A549 human lung and PC-3 human prostate cancer cell lines were tested.
(§2) Cell Growth Assay: Cell Growth was Measured by the SRB Assay.

[2] = system: KLN mouse squamous cell carcinoma cells; test: Cell proliferation SRB assay, KLN; format: cell-based
Description: as §1, §2

[3] = system: PC-3 human prostate cancer cells; test: Cell proliferation SRB assay, PC-3; format: cell-based; conditions: read-out: IC50 (μM), concentration that inhibits cell proliferation by 50%
Description: as §1
To determine if N,N′-diarylureas inhibit cell proliferation by reducing the availability of the ternary complex, the effect of N,N′-diarylureas on proliferation of previously described transgenic PC-3 human prostate cancer cell lines expressing either the non-phosphorylatable eIF2α-S51A mutant or the eIF2α-WT was studied. […] Reducing the expression of HRI, the eIF2α kinase that mediates N,N′-diarylurea induced phosphorylation of eIF2α similarly abrogates the effect of these agents on cell proliferation (FIGS. 15C and 15D).
as §2

[4] = system: CRL-2351 human breast cancer cells; test: Cell proliferation SRB assay, CRL-2351; format: cell-based; conditions: Homo sapiens
Description: as §1, §2

[5] = system: CRL-2813 human melanoma cells; test: Cell proliferation SRB assay, CRL-2813; format: cell-based
Description: as §1, with “tested. […]” for “tested.”
as §2

[6] = system: eIF2.GTP.Met-tRNAi ternary complex; test: ATF-4 assay (firefly/renilla luciferase ratio) in CRL-2351 cell line; format: cell-based, human; conditions: for maximal fold induction / EC (activity threshold of 5): Homo sapiens; for maximal fold induction: read-out: ATF-4 Amax: maximal activity, ratio of firefly over renilla luciferase expression; for EC (activity threshold of 5): read-out: ATF-4 C[5] (μM): concentration corresponding to an activity threshold of 5; for Cmax: read-out: ATF-4 Cmax (μM): concentration corresponding to the maximal activity
Excerpt: For example, reducing amount of the ternary complex increases translation of ATF-4, which results in elevated expression of CHOP mRNA and protein. Therefore, expression of endogenous CHOP mRNA and CHOP protein in KLN-tTA/pBISA-DL^(ATF-4) cells were utilized as secondary assays to validate N,N′-diarylurea compounds as modifiers of the eIF2.GTP.Met-tRNAi ternary complex. […] To rule out the possibility that the activity of N,N′-diarylurea compounds was confined to a single cell type, the effects of these compounds on the ternary complex assay and the expression of CHOP mRNA was assayed in CRL-2351, PC-3, CRL-2813 human breast, prostate, and melanoma cancer cell lines respectively. For the reporter gene assay, the three human cell lines were co-transfected with tTA expression vector and the pBISA-DL^(ATF-4) dual luciferase expression vector shown in FIG. 6. […] The expression of CHOP mRNA was assayed by real time PCR in the same cell lines treated with 5 or 20 μM of each compound.
Stable and transient transfection: Cells were seeded at the density of 10^5 in 60-mm (stable transfection) or 10^4 cells per well of 96-well plate (transient transfection) plates and transfected one day later using the Qiagen Transfectamine transfection kit. For selection of stable cell lines, transfected cells were transferred to 100-mm plates and selected with appropriate antibiotics.
Dual luciferase assay: Cells or minced tumors expressing firefly and renilla luciferases were lysed and the extracts assayed with a glow type dual luciferase assay kit, per manufacturer's instruction (Promega Inc., Madison, Wis.).

[7] = In vivo toxicity, seven day administration to mice; conditions: female nude mice, 100 or 200 mg/kg daily for seven days, observed 15 days
Description: Five female nude mice each were treated with 200 mg/kg, 100 mg/kg #1781 in 15 μl DMSO or 15 μl DMSO daily for seven days. Mice were observed daily for signs of toxicity and weighed every other day for total of 15 days and then necropsy was performed. The average body of each group is plotted against the time.
To study toxicity effects, mice were treated with various doses of compound #1781 or vehicle.

[8] = KLN, read-out: IC50 (μM), concentration that inhibits cell proliferation by 50%
[9] = CRL-2351, read-out: IC50 (μM), concentration that inhibits cell proliferation by 50%
[10] = CRL2813, CRL-2813, read-out: IC50 (μM), concentration that inhibits cell proliferation by 50%
[11] = KLN cells, read-out: IC50 (μM) by SRB assay, KLN
[12] = 2351 cells, read-out: IC50 (μM) by SRB assay, 2351
[13] = CRL2813, 2813 cells, read-out: IC50 (μM) by SRB assay, 2813

IC50 [1] [µM]	IC50 [2, 8] [µM]	IC50 [3] [µM]	IC50 [4, 9] [µM]	IC50 [5, 10] [µM]	IC50 [2, 11] [µM]	Cmax [6] [µM]	IC50 [4, 12] [µM]	IC50 [5, 13] [µM]	SMILES	maximal fold induction [6]	EC (activity threshold of 5) [6] [µM]	In vivo toxicity [7]
–	–	–	–	–	20	10	9.3	1.6	Cc1ccc(NC(=O)Nc2ccc(Cl)c(C(F)(F)F)c2)cc1O [Compound 5, 3-[4-chloro-3-(trifluoromethyl)phenyl]-1-(3-hydroxy-4-methylphenyl)urea]	11	6	–
> 20	> 20	–	9.5	20	–	–	–	–	O=C(Nc1ccc(Cl)c(Cl)c1)Nc1cc([N+](=O)[O-])ccc1Cl [Compound 1527]	–	–	–
–	–	–	–	–	> 20	5	2.6	0.8	O=C(Nc1ccc(Cl)c(Cl)c1)Nc1ccc(Cl)c(Cl)c1 [Compound 1, 1,3-bis(3,4-dichlorophenyl)urea]	11	2	–
–	–	–	–	–	> 20	10	4.5	5.1	Cc1ccc(NC(=O)Nc2ccc(Cl)c(Cl)c2)cc1OCCN1CCNCC1 [Compound 23, 4-[2-(5-{[(3,4-dichlorophenyl)carbamoyl]amino}-2-methylphenoxy)ethyl]piperazine-1,4-diium dichloride]	7.5	7	–
–	–	–	–	–	> 20	20	9	1.8	Cc1ccc(NC(=O)Nc2ccc(Cl)c(Cl)c2)cc1O [Compound 4, 3-(3,4-dichlorophenyl)-1-(3-hydroxy-4-methylphenyl)urea]	13	11	–
–	–	–	–	–	13.5	20	5.8	5.3	Cc1ccc(NC(=O)Nc2ccc(Cl)c(Cl)c2)cc1OCCN(C)C [Compound 11, 3-(3,4-dichlorophenyl)-1-{3-[2-(dimethylamino)ethoxy]-4-methylphenyl}urea]	7.5	8	–
–	–	–	–	–	> 20	40	2	1.8	O=C(Nc1ccc(Cl)c(Cl)c1)Nc1ncccc1O [Compound 26]	12	13	–
–	–	–	–	–	> 20	–	11	> 20	COc1cc(NC(=O)Nc2ccc(Cl)c(Cl)c2)ccc1C [Compound 7]	–	–	–
–	–	–	–	–	–	2.5	2.8	1.7	O=C(Nc1ccc(Cl)c(C(F)(F)F)c1)Nc1ccc(Cl)c(C(F)(F)F)c1 [Compound 2, 1,3-bis[4-chloro-3-(trifluoromethyl)phenyl]urea]	11	1.5	–

Second part, the compound before the results:

SMILES	IC50 [1] [µM]	IC50 [2, 8] [µM]	IC50 [3] [µM]	IC50 [4, 9] [µM]	IC50 [5, 10] [µM]	IC50 [2, 11] [µM]	Cmax [6] [µM]	IC50 [4, 12] [µM]	IC50 [5, 13] [µM]	maximal fold induction [6]	EC (activity threshold of 5) [6] [µM]	In vivo toxicity [7]
O=C(Nc1ccc(Cl)cc1)Nc1ccc2nonc2c1 [KM094748]	1.3	8.5	1.4	0.1	0.3	–	–	–	–	–	–	–
Cc1ccc(NC(=O)Nc2ccc(Cl)c(C(F)(F)F)c2)cc1OCCN1CCOCC1 [Compound 16, 3-[4-chloro-3-(trifluoromethyl)phenyl]-1-{4-methyl-3-[2-(morpholin-4-yl)ethoxy]phenyl}urea]	–	–	–	–	–	> 20	10	2.7	0.9	7	7	–
O=C(Nc1ccc(Cl)c(Cl)c1)Nc1ccc2nnsc2c1 [Compound 1781]	1.2	17.1	1.1	3	0.5	–	–	–	–	–	–	no apparent in vivo toxicity
Cc1ccc(NC(=O)Nc2cc(C(F)(F)F)cc(C(F)(F)F)c2)cc1OCCN1CCNCC1 [Compound 25, 4-{2-[5-({[3,5-bis(trifluoromethyl)phenyl]carbamoyl}amino)-2-methylphenoxy]ethyl}piperazine-1,4-diium dichloride]	–	–	–	–	–	–	10	5.2	3.1	10	6	–
O=C(Nc1cc(C(F)(F)F)cc(C(F)(F)F)c1)Nc1cc(C(F)(F)F)cc(C(F)(F)F)c1 [Compound 3, 1,3-bis[3,5-bis(trifluoromethyl)phenyl]urea]	–	–	–	–	–	3.9	2.5	0.6	0.1	11	1.5	–
Cc1ccc(NC(=O)Nc2ccc(Cl)c(C(F)(F)F)c2)cc1OCCN(C)C [Compound 12, 3-[4-chloro-3-(trifluoromethyl)phenyl]-1-{3-[2-(dimethylamino)ethoxy]-4-methylphenyl}urea]	–	–	–	–	–	12.3	10	2.5	2.8	7	7	–
O=C(Nc1ccc(Cl)c(C(F)(F)F)c1)Nc1ccc2nnsc2c1 [Compound 1780]	0.8	14.8	0.9	1.3	0.1	–	–	–	–	–	–	–
Cc1ccc(NC(=O)Nc2cc(C(F)(F)F)cc(C(F)(F)F)c2)cc1O [Compound 6, 3-[3,5-bis(trifluoromethyl)phenyl]-1-(3-hydroxy-4-methylphenyl)urea]	–	–	–	–	–	13.5	5	3.2	1	13	3	–
COc1cc(NC(=O)Nc2ccc(Cl)c(C(F)(F)F)c2)ccc1C [Compound 8]	–	–	–	–	–	17.2	10	2.5	3	8	3	–
O=C(Nc1ccc(Cl)c(C(F)(F)F)c1)Nc1ncccc1O [Compound 27]	–	–	–	–	–	12.5	40	1.2	0.8	6.5	10	–
Cc1ccc(NC(=O)Nc2cc(C(F)(F)F)cc(C(F)(F)F)c2)cc1OCCN(C)C [Compound 13, 3-[3,5-bis(trifluoromethyl)phenyl]-1-{3-[2-(dimethylamino)ethoxy]-4-methylphenyl}urea]	–	–	–	–	–	12.4	10	2.9	–	12.5	5	–
COc1cc(NC(=O)Nc2cc(C(F)(F)F)cc(C(F)(F)F)c2)ccc1C [Compound 9]	–	–	–	–	–	20	20	2.2	0.7	12	< 2.5	–
Cc1ccc(NC(=O)Nc2cc(C(F)(F)F)cc(C(F)(F)F)c2)cc1OCCN1CCOCC1 [Compound 17, 3-[3,5-bis(trifluoromethyl)phenyl]-1-{4-methyl-3-[2-(morpholin-4-yl)ethoxy]phenyl}urea]	–	–	–	–	–	18.6	10	2.3	0.8	9	3	–
